Laboratory results published in PubChem BioAssay (NCI).
Values joined by “and” are separate entries in the source; they are usually repeats but may differ in a detail not shown here. Identical values can stand only once.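 Cultured in 96-well plates, cells were exposed to test compound for 48 hours across five concentrations. The concentration for 50% growth inhibition is given as GI50. Definition used: TGI = concentration required for complete inhibition of growth.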

How the values were obtained:
Assay in all cases: NCI tumour cell line growth inhibition, 48 h
[1] = system: SK-MEL-5 melanoma
[2] = system: SK-MEL-2 melanoma
[3] = system: MALME-3M melanoma
[4] = system: NCI-H460 lung
[5] = system: HT29 colon
[6] = system: UACC-62 melanoma
[7] = system: A498 renal
[8] = system: MCF7 breast
[9] = system: CCRF-CEM leukemia
[10] = system: SN12C renal
[11] = system: 786-0 renal
[12] = system: UACC-257 melanoma
[13] = system: HCT-116 colon
[14] = system: HL-60(TB) leukemia
[15] = system: MDA-MB-435
[16] = system: RXF 393 renal
[17] = system: HCT-15 colon
[18] = system: CAKI-1 renal
[19] = system: SF-268 CNS
[20] = system: M14 melanoma
[21] = system: NCI-H522 lung
[22] = system: COLO 205 colon
[23] = system: OVCAR-5 ovarian
[24] = system: HOP-62 NSCLC
[25] = system: RPMI-8226 leukemia
[26] = system: EKVX NSCLC
[27] = system: DU-145 prostate
[28] = system: A549 NSCLC
[29] = system: NCI-H226 lung
[30] = system: SNB-19 CNS
[31] = system: IGROV1 ovarian
[32] = system: OVCAR-4 ovarian
[33] = system: LOX IMVI melanoma
[34] = system: OVCAR-8 ovarian
[35] = system: SK-OV-3 ovarian
[36] = system: ACHN renal
[37] = system: SF-539 CNS
[38] = system: T-47D breast
[39] = system: HS 578T breast
[40] = system: HOP-92 NSCLC
[41] = system: UO-31 renal
[42] = system: OVCAR-3 ovarian
[43] = system: SK-MEL-28 melanoma
[44] = system: NCI-H23 lung
[45] = system: PC-3 prostate
[46] = system: MOLT-4 leukemia
[47] = system: SNB-75 CNS
[48] = system: SF-295 CNS
[49] = system: NCI/ADR-RES ovarian
[50] = system: BT-549 breast
[51] = system: K-562 leukemia
[52] = system: SW-620 colon
[53] = system: U251 CNS
[54] = system: KM12 colon
[55] = system: MDA-MB-231 breast
[56] = system: TK-10 renal
[57] = system: HCC-2998 colon

COc1cc2ncnc(Nc3ccc(F)c(Cl)c3)c2cc1NC(=O)/C=C/CN1CCCCC1
GI50 [1]: 1.61 µM and 1.66 µM
TGI [1]: 3.13 µM and 3.06 µM
GI50 [2]: 1.81 µM and 1.72 µM
TGI [2]: 3.52 µM and 3.39 µM
GI50 [3]: 1.73 µM and 1.61 µM
TGI [3]: 3.31 µM and 3.09 µM
GI50 [4]: 2.18 µM and 2.4 µM
TGI [4]: 6.22 µM and 7 µM
GI50 [5]: 1.68 µM and 2.08 µM
TGI [5]: 3.59 µM and > 7.79 µM
GI50 [6]: 1.61 µM and 1.73 µM
TGI [6]: 3.02 µM and 3.23 µM
GI50 [7]: 0.812 µM and 0.556 µM
TGI [7]: 4.04 µM and 3.71 µM
GI50 [8]: 2 µM and 2.03 µM
TGI [8]: 6.32 µM and 6.56 µM
GI50 [9]: 1.01 µM and 2.03 µM
TGI [9]: 5.7 µM and 8 µM
GI50 [10]: 0.429 µM and 0.389 µM
TGI [10]: 3.35 µM and 2.3 µM
GI50 [11]: 1.5 µM and 1.29 µM
TGI [11]: 2.98 µM and 2.75 µM
GI50 [12]: 1.66 µM and 1.79 µM
TGI [12]: 3.39 µM and 3.51 µM
GI50 [13]: 1.45 µM and 1.54 µM
TGI [13]: 3.1 µM and 3.54 µM
GI50 [14]: 1.65 µM and 0.814 µM
TGI [14]: 3.64 µM and 3.11 µM
GI50 [15]: 1.6 µM and 1.46 µM
TGI [15]: 3.42 µM and 2.95 µM
GI50 [16]: 0.919 µM and 0.89 µM
TGI [16]: 2.55 µM and 2.94 µM
GI50 [17]: 1.07 µM and 1.12 µM
TGI [17]: 4.6 µM and 3.81 µM
TGI [18]: 2.81 µM and 3.43 µM
GI50 [19]: 1.5 µM and 1.42 µM
TGI [19]: 3.99 µM and 4.73 µM
GI50 [20]: 1.72 µM and 1.61 µM
TGI [20]: 3.4 µM and 3.26 µM
GI50 [21]: 0.0296 µM and 0.00694 µM
TGI [21]: 1.64 µM and 1.89 µM
GI50 [22]: 1.68 µM and 2 µM
TGI [22]: 3.43 µM and 4.18 µM
GI50 [23]: 1.19 µM and 1.17 µM
TGI [23]: 8.45 µM and > 8.15 µM
GI50 [24]: 2.11 µM and 3.02 µM
TGI [24]: 5.65 µM and > 9.66 µM
GI50 [25]: 1.95 µM and 1.93 µM
TGI [25]: 5.11 µM and 4.99 µM
GI50 [26]: 0.00274 µM
TGI [26]: > 10 µM
GI50 [27]: 0.365 µM and 0.401 µM
TGI [27]: 11.4 µM and > 10 µM
GI50 [28]: 1.27 µM and 1.65 µM
TGI [28]: 3.71 µM and > 8.03 µM
GI50 [29]: 2.91 µM and 4.52 µM
TGI [29]: 19.3 µM and > 10 µM
GI50 [30]: 2.04 µM and 1.86 µM
TGI [30]: 17 µM and > 10 µM
TGI [31]: 2.96 µM and 2.07 µM
GI50 [32]: 1.16 µM and 1.79 µM
TGI [32]: 4.86 µM and 7.17 µM
GI50 [33]: 1.75 µM and 1.69 µM
TGI [33]: 3.27 µM and 3.24 µM
GI50 [34]: 1.28 µM and 1.64 µM
TGI [34]: 5.35 µM and > 6.21 µM
GI50 [35]: 0.0171 µM and 0.00478 µM
TGI [35]: 2.3 µM and 2.23 µM
GI50 [36]: < 0.01 µM and 0.00256 µM
TGI [36]: 1.76 µM and 1.48 µM
GI50 [37]: 1.63 µM and 1.56 µM
TGI [37]: 3.08 µM and 3.03 µM
GI50 [38]: 0.381 µM and 0.0625 µM
TGI [38]: 3.67 µM and 4.9 µM
GI50 [39]: 2.01 µM and 0.921 µM
TGI [39]: 19.6 µM and 5.6 µM
GI50 [40]: 0.0672 µM and 0.643 µM
TGI [40]: 2.43 µM and 5.63 µM
TGI [41]: 2.23 µM and 1.99 µM
GI50 [42]: 1.14 µM and 1.21 µM
TGI [42]: 2.45 µM and 3.24 µM
GI50 [43]: 1.79 µM and 1.65 µM
TGI [43]: 3.36 µM and 3.14 µM
GI50 [44]: 2.65 µM and 2.54 µM
TGI [44]: 7.81 µM and > 8.79 µM
GI50 [45]: 2.53 µM and 2.78 µM
TGI [45]: 10.5 µM and > 10 µM
GI50 [46]: 1.41 µM and 1.59 µM
TGI [46]: 4.97 µM and 7.26 µM
GI50 [47]: 1.03 µM and 1.25 µM
TGI [47]: 6 µM and 6.47 µM
GI50 [48]: 1.78 µM and 2.44 µM
TGI [48]: 4.03 µM and > 7.08 µM
GI50 [49]: 1.48 µM and 1.12 µM
TGI [49]: 7.15 µM and 6.37 µM
GI50 [50]: 2.49 µM and 2.56 µM
TGI [50]: 8.32 µM and 9.98 µM
GI50 [51]: 1.65 µM and 2.05 µM
TGI [51]: 5.12 µM and > 8.09 µM
GI50 [52]: 1.84 µM and 1.64 µM
TGI [52]: 4.42 µM and 3.54 µM
GI50 [53]: 1.46 µM and 1.87 µM
TGI [53]: 3.26 µM and 4.27 µM
GI50 [54]: 2.17 µM and 2.78 µM
TGI [54]: 4.88 µM and > 9.06 µM
GI50 [55]: 1.3 µM and 1.53 µM
TGI [55]: 3.2 µM and 4 µM
GI50 [56]: < 0.01 µM and 0.00151 µM
TGI [56]: 1.68 µM and 2.3 µM
GI50 [57]: 1.97 µM and 1.75 µM
TGI [57]: 4.38 µM and 4.29 µM

OCCNc1ncnc2c1ncn2Cc1cccc(COc2cccc(OCc3cccc(Cn4cnc5c(NCCO)ncnc54)c3)c2)c1
GI50 [1]: 16.7 µM
TGI [1]: 31 µM
GI50 [2]: 16 µM
TGI [2]: 35.2 µM
GI50 [3]: 17.2 µM
TGI [3]: 38.3 µM
GI50 [4]: 15.1 µM
TGI [4]: 29 µM
GI50 [5]: 4.05 µM
TGI [5]: 16.5 µM
GI50 [6]: 17 µM
TGI [6]: 33.8 µM
GI50 [7]: 14.9 µM
TGI [7]: 28.9 µM
GI50 [8]: 12.6 µM
TGI [8]: 26.1 µM
GI50 [9]: 11.3 µM
TGI [9]: 33.1 µM
GI50 [10]: 17 µM
TGI [10]: 34.5 µM
GI50 [11]: 15.5 µM
TGI [11]: 30.3 µM
GI50 [12]: 18.4 µM
TGI [12]: 36.1 µM
GI50 [13]: 10.2 µM
TGI [13]: 22.3 µM
GI50 [14]: 10.6 µM
TGI [14]: 29.3 µM
GI50 [15]: 14.9 µM
TGI [15]: 35.7 µM
GI50 [17]: 30.9 µM
TGI [17]: > 100 µM
GI50 [18]: 18.4 µM
TGI [18]: 42.1 µM
GI50 [19]: 16.4 µM
TGI [19]: 32.7 µM
GI50 [20]: 17.2 µM
TGI [20]: 33.3 µM
GI50 [21]: 12.5 µM
TGI [21]: 31.8 µM
GI50 [22]: 13.5 µM
TGI [22]: 32.2 µM
GI50 [23]: 20.2 µM
TGI [23]: 36.8 µM
GI50 [25]: 6.47 µM
TGI [25]: 27.8 µM
GI50 [26]: 14.3 µM
TGI [26]: 29 µM
GI50 [27]: 16.7 µM
TGI [27]: 32.5 µM
GI50 [28]: 24.9 µM
TGI [28]: 50.7 µM
GI50 [29]: 15.5 µM
TGI [29]: 33.3 µM
GI50 [30]: 15.4 µM
TGI [30]: 30.4 µM
GI50 [31]: 12.9 µM
TGI [31]: 37.4 µM
GI50 [32]: 14.7 µM
TGI [32]: 34.2 µM
GI50 [33]: 14.5 µM
TGI [33]: 30.1 µM
GI50 [34]: 18.5 µM
TGI [34]: 38.1 µM
GI50 [35]: > 100 µM
TGI [35]: > 100 µM
GI50 [36]: 20.7 µM
TGI [36]: 43.2 µM
GI50 [37]: 11.5 µM
TGI [37]: 25.4 µM
GI50 [38]: 16 µM
TGI [38]: 33.4 µM
GI50 [39]: 11.8 µM
TGI [39]: 28.7 µM
GI50 [40]: 7.61 µM
TGI [40]: 23.6 µM
GI50 [41]: 23.1 µM
TGI [41]: 56.6 µM
GI50 [42]: 17.6 µM
TGI [42]: 36.7 µM
GI50 [43]: 14.6 µM
TGI [43]: 28.4 µM
GI50 [45]: 14.5 µM
TGI [45]: 30.4 µM
GI50 [46]: 11.8 µM
TGI [46]: 32.4 µM
GI50 [47]: 12.3 µM
TGI [47]: 27.4 µM
GI50 [48]: 13 µM
TGI [48]: 31.8 µM
GI50 [49]: > 100 µM
TGI [49]: > 100 µM
GI50 [50]: 11.9 µM
TGI [50]: 25.9 µM
GI50 [51]: 8.01 µM
TGI [51]: 35.8 µM
GI50 [52]: 11.8 µM
TGI [52]: 24.9 µM
GI50 [53]: 12.3 µM
TGI [53]: 24.7 µM
GI50 [54]: 13.3 µM
TGI [54]: 38.8 µM
GI50 [55]: 14.5 µM
TGI [55]: 29.3 µM
GI50 [56]: 14.7 µM
TGI [56]: 29.9 µM
GI50 [57]: 15.1 µM
TGI [57]: 33.6 µM
